Measurements reported in US11970463B2, “Compounds and their use” (ASTRAZENECA AB, priority 2021, dated 2024).
Values after ≈ are worked out from the molar mass of the structure shown. Like-named read-outs stand apart in the source and are kept apart here.

Columns and labels:
[1] = Solubility (Test F), McIlvaine buffer pH 6.5; assay type: physicochemical; details: McIlvaine buffer pH 6.5, 25° C., 24 to 72 h, theoretical maximum 200 μM; for solubility: disodium hydrogenphosphate-citric acid (McIlvaine) buffer, 25 °C, pH 6.5, aqueous buffer, thermodynamic from solid
[2] = target: T1, Human NLRP3 (Homo sapiens (Human), UniProt Q96P20)
[3] = target: T1, Human NLRP3; remark: listed apart in the source
[4] = target: T1, Human NLRP3; experiment: Human NLRP3 speck formation assay (Test A), nigericin triggered ASC-speck formation in ASC-GFP reporter monocytes
[5] = Solubility (Test E); assay type: physicochemical
[6] = target: hERG (Homo sapiens (Human), UniProt Q12809); experiment: hERG assay (Test D), SyncroPatch 384PE patch clamp, hERG-expressing CHO cells; assay type: cell-based; details: rt
[7] = Test C IC50, IL-1β release, THP-1 cells, LPS 2 μg/mL 24 h, BzATP 1 mM

Chain of hERG (Q12809 whole entry): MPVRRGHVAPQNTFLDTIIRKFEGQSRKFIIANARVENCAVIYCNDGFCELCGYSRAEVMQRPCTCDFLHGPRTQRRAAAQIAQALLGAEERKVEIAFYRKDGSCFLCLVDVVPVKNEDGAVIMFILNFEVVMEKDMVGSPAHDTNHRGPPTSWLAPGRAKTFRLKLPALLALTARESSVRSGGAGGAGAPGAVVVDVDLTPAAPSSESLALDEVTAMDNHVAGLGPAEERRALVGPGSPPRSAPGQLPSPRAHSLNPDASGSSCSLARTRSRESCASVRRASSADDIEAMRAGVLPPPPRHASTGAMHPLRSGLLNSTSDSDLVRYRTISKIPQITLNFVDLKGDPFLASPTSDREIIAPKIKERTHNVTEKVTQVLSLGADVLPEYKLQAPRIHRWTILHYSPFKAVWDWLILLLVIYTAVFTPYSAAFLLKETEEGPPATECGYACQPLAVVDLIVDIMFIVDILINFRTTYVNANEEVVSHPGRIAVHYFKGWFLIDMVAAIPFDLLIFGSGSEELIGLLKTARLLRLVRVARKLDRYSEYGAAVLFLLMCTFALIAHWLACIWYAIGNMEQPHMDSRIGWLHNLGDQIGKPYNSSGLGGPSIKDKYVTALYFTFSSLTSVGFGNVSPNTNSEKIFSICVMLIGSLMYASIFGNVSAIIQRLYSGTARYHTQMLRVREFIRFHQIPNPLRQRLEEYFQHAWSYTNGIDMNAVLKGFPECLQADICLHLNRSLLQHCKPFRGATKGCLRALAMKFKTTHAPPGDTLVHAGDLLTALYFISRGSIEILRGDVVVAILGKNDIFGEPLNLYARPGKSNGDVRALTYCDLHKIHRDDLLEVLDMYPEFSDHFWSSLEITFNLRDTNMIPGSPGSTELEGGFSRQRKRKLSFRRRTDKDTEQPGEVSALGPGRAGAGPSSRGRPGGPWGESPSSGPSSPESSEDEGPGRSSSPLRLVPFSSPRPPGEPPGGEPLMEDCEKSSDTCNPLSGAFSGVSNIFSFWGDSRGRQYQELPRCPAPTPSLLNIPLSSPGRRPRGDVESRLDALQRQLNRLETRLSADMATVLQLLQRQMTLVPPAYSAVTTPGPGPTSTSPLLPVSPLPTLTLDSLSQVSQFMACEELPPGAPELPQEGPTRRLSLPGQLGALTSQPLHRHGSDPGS
T1 sequence (Q96P20 whole entry): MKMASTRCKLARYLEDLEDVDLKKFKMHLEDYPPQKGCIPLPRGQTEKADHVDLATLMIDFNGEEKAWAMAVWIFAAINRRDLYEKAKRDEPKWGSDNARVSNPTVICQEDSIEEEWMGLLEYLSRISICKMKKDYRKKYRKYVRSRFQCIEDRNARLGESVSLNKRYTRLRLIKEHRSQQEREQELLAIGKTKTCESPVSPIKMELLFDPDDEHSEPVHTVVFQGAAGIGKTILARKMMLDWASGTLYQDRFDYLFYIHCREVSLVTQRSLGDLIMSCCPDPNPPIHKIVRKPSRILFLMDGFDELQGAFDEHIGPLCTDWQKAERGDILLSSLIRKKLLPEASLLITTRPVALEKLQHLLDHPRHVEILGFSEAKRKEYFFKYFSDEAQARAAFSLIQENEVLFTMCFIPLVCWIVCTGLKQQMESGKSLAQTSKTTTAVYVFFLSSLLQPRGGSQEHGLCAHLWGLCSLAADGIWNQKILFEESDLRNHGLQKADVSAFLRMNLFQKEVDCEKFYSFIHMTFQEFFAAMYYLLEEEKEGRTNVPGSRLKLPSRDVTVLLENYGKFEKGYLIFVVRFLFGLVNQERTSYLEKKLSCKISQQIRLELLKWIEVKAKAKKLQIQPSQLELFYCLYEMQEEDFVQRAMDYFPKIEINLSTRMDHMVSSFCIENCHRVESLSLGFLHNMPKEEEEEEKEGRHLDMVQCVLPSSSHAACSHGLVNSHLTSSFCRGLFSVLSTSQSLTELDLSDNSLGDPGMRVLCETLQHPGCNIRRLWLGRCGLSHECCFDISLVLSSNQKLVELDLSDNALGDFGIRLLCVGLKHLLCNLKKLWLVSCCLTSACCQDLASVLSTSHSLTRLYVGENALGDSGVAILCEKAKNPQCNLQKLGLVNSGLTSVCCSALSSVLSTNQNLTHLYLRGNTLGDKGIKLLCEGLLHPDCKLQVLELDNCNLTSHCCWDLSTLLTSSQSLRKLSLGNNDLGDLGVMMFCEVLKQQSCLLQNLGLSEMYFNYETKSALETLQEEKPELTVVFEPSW

Compound | solubility [1] [µg/mL] | IC50 [2, 7] [nM] | IC50 [3] [nM] | EC50 [4] [nM] | solubility [5] [µM] | IC50 [2] [nM] | Test F Solubility [1] [µg/mL] | IC50 [6] [nM]
Oc1cc(C(F)(F)F)ccc1-c1nnc(N[C@H]2CC[C@H](O)C2)c2ccccc12 [Example 17, 2-[4-[[(1S,3S)-3-hydroxycyclopentyl]amino]phthalazin-1-yl]-5-(trifluoromethyl)phenol] | 27.5 (≈ 70.6 µM) | 86 | 169 | 290 |  |  |  | 
Oc1cccc(F)c1-c1nnc(N[C@@H]2CCCC[C@H]2O)c2cnccc12 [Example 76, 3-fluoro-2-(4-(((1R,2R)-2-hydroxycyclohexyl)amino)pyrido[3,4-d]pyridazin-1-yl)phenol] |  |  |  | 128 |  |  |  | > 40000
Oc1cc(C(F)(F)F)ccc1-c1nnc(N[C@H]2CCCC[C@@H]2O)c2ccccc12 [Example 26, 2-[4-[[(1S,2S)-2-hydroxycyclohexyl]amino]phthalazin-1-yl]-5-(trifluoromethyl)phenol] | 8.3 (≈ 20.6 µM) | 602 |  | 1980 | 148 (≈ 59.7 µg/mL) |  |  | 
Cc1ccc(-c2nnc(NC[C@H](O)CO)c3ccccc23)c(O)c1 [Example 11, (2S)-3-[[4-(2-hydroxy-4-methyl-phenyl)phthalazin-1-yl]amino]propane-1,2-diol] | > 65.1 | 23 | 82 | 207 | > 1000 |  |  | 
C[C@]1(O)C[C@@H](Nc2nnc(-c3c(O)cc(F)cc3F)c3ccncc23)C1 [Example 69, 3,5-difluoro-2-(4-(((1s,3s)-3-hydroxy-3-methylcyclobutyl)amino)pyrido[3,4-d]pyridazin-1-yl)phenol] | 13.6 (≈ 38 µM) |  | 149 | 301 | 29 (≈ 10.4 µg/mL) | 38 |  | 
Oc1cc(Cl)ccc1-c1nnc(N[C@@H]2CCCC[C@H]2O)c2cnccc12 [Example 58, 5-chloro-2-[4-[[(1R,2R)-2-hydroxycyclohexyl]amino]pyrido[3,4-d]pyridazin-1-yl]phenol] | 42.4 (≈ 114 µM) | 2 |  | 11 |  |  |  | > 40000
Cc1ccc2c(NC[C@H](O)CO)nnc(-c3ccc(C(F)(F)F)cc3O)c2c1 [Example 15, (2S)-3-[[4-[2-hydroxy-4-(trifluoromethyl)phenyl]-6-methyl-phthalazin-1-yl]amino]propane-1,2-diol] | 14.7 (≈ 37.4 µM) | 26 |  | 220 | 155 (≈ 61 µg/mL) |  |  | 
Oc1cc(Cl)ccc1-c1nnc(N[C@@H]2CCC[C@H](O)C2)c2cnccc12 [Example 44, 5-chloro-2-[4-[[(1R,3S)-3-hydroxycyclohexyl]amino]pyrido[3,4-d]pyridazin-1-yl]phenol] | 40.1 (≈ 108 µM) | < 3 |  | 16 | 636 (≈ 236 µg/mL) |  |  | > 40000
Oc1cc(C(F)(F)F)ccc1-c1nnc(N[C@H]2CC[C@@H](O)C2)c2ccccc12 (single isomer, unassigned) [Example 35] |  | 69 | 71 | 212 |  |  | 10.9 | 

More lines, in order of falling EC50 [4], values ahead:

solubility [1] [µg/mL] | IC50 [2, 7] [nM] | IC50 [3] [nM] | EC50 [4] [nM] | solubility [5] [µM] | IC50 [2] [nM] | Test F Solubility [1] [µg/mL] | Compound | IC50 [6] [nM]
2.1 (≈ 5.03 µM) | 34 |  | 562 | 9 (≈ 3.76 µg/mL) |  |  | Oc1cc(C(F)(F)F)ccc1-c1nnc(N[C@@H]2CCCCC[C@H]2O)c2ccccc12 (racemic) [Example 27, rac-(1R,2R)-2-[[4-[2-hydroxy-4-(trifluoromethyl)phenyl]phthalazin-1-yl]amino]cycloheptanol] | 
1.1 (≈ 2.93 µM) |  | 114 | 373 | 11 (≈ 4.12 µg/mL) | 37 |  | C[C@]1(O)C[C@@H](Nc2nnc(-c3ccc(Cl)c(F)c3O)c3ccncc23)C1 [Example 65, 3-chloro-2-fluoro-6-(4-(((1s,3s)-3-hydroxy-3-methylcyclobutyl)amino)pyrido[3,4-d]pyridazin-1-yl)phenol] | 
1.4 (≈ 3.73 µM) | 63 | 141 | 248 |  |  |  | Oc1cc(C(F)(F)F)ccc1-c1nnc(N[C@H]2C[C@H](O)C2)c2ccccc12 [Example 32, 2-(4-(((1r,3r)-3-hydroxycyclobutyl)amino)phthalazin-1-yl)-5-(trifluoromethyl)phenol] | 
2.6 (≈ 6.93 µM) | 46 | 122 | 206 |  |  |  | Oc1cc(C(F)(F)F)ccc1-c1nnc(N[C@H]2C[C@@H](O)C2)c2ccccc12 [Example 33, 2-(4-(((1s,3s)-3-hydroxycyclobutyl)amino)phthalazin-1-yl)-5-(trifluoromethyl)phenol] | 
> 79.1 | 40 | 99 | 201 | 130 (≈ 51.4 µg/mL) |  |  | OC[C@@H](O)CNc1nnc(-c2ccc(OC(F)(F)F)cc2O)c2ccccc12 [Example 6, (2S)-3-[[4-[2-hydroxy-4-(trifluoromethoxy)phenyl]phthalazin-1-yl]amino]propane-1,2-diol] | 
8.6 (≈ 22.1 µM) | 10 | 46 | 162 | 206 (≈ 80.2 µg/mL) |  |  | Oc1cc(C(F)(F)F)ccc1-c1nnc(N[C@@H]2CCC[C@H]2O)c2ccccc12 [Example 20, 2-[4-[[(1R,2R)-2-hydroxycyclopentyl]amino]phthalazin-1-yl]-5-(trifluoromethyl)phenol] | 
14.1 (≈ 38.9 µM) | 15 |  | 142 |  |  |  | CC(C)(O)CNc1nnc(-c2c(O)cc(Cl)cc2F)c2ccncc12 [Example 73, 5-chloro-3-fluoro-2-[4-[(2-hydroxy-2-methyl-propyl)amino]pyrido[3,4-d]pyridazin-1-yl]phenol] | > 40000
 |  | 10 | 124 |  |  |  | Oc1cc(F)ccc1-c1nnc(N[C@@H]2CCCC[C@H]2O)c2cnccc12 [Example 75, 5-fluoro-2-(4-(((1R,2R)-2-hydroxycyclohexyl)amino)pyrido[3,4-d]pyridazin-1-yl)phenol] | > 40000
7.9 (≈ 22.8 µM) | 17 | 45 | 122 | 6 (≈ 2.07 µg/mL) |  |  | OC[C@@H](O)CNc1nnc(-c2ccc(Cl)cc2O)c2ccccc12 [Example 5, (2S)-3-[[4-(4-chloro-2-hydroxy-phenyl)phthalazin-1-yl]amino]propane-1,2-diol] | 
> 78.1 | 27 |  | 88 | 20 (≈ 7.81 µg/mL) |  |  | C[C@]1(O)C[C@H](Nc2nnc(-c3ccc(C(F)(F)F)cc3O)c3ccncc23)C1 [Example 84, 2-(4-(((1r,3r)-3-hydroxy-3-methylcyclobutyl)amino)pyrido[3,4-d]pyridazin-1-yl)-5-(trifluoromethyl)phenol] | 
1.5 (≈ 3.67 µM) |  | 24 | 67 | 3 (≈ 1.23 µg/mL) | 8 |  | C[C@]1(O)C[C@@H](Nc2nnc(-c3c(O)cc(C(F)(F)F)cc3F)c3ccncc23)C1 [Example 67, 3-fluoro-2-(4-(((1s,3s)-3-hydroxy-3-methylcyclobutyl)amino)pyrido[3,4-d]pyridazin-1-yl)-5-(trifluoromethyl)phenol] | 
51.9 (≈ 138 µM) | 6 |  | 52 | 447 (≈ 168 µg/mL) |  |  | Oc1cc(C2CC2)ccc1-c1nnc(N[C@@H]2CCC[C@H](O)C2)c2cnccc12 [Example 52, 5-cyclopropyl-2-[4-[[(1R,3S)-3-hydroxycyclohexyl]amino]pyrido[3,4-d]pyridazin-1-yl]phenol] | 22000
